Laboratory results taken from PubChem BioAssay AID179 (DTP/NCI, 2004).
Values joined by “and” are separate entries in the source; they are usually repeats but may differ in a detail not shown here. Equal values may be shown once. Active and inactive are the calls of the source.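 Rule for the calls: active = compounds giving half or more protection of infected cells from virus-caused growth loss, again on retest; inactive = the rest.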 Where a SMILES comes first, the peptide text is derived from it. The star is where a group is joined. Cbz = O=C(OCc1ccccc1)*; NHNH2 = NN*

Tested on: CEM cells HIV-1 protection, formazan growth assay
Assay: NCI AIDS Antiviral Assay
Settings: for IC50: measured here: growth of uninfected CEM cells
How it was run: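 Category rules: moderately active means at least 50% protection on retest, and confirmed active means 100% protection reproducibly. The underlying data came from a formazan growth assay in HIV-1-infected CEM cells.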

Row | Structure (SMILES) | EC50 | IC50 | outcome
1 | COc1cc2c(cc1OC(=O)CC(C)O)C1C(OC2=O)C(OC(C)=O)C=C2CCN(C)[C@H]21 (stereo partly drawn) | > 56.2 µM | > 56.2 µM | –
2 | COc1cc2c(cc1OC)CC(=O)c1cc(OC)c(OC)cc1/C=C\2 | > 12.6 µM | 7.59 µM | –
3 | O=c1ccn(C2OC(CO)CC2F)c(=O)[nH]1 (stereo not drawn) | > 676 µM | > 676 µM | –
4 | CCOC(=O)NP(=O)(Nc1ccc(C)cc1)Nc1ccc(C)cc1 | > 200 µM | > 200 µM | –
5 | COC(=O)C1C(C(=O)OC)N(Cc2ccccc2)C(=O)N1Cc1ccccc1 (stereo not drawn) | > 200 µM | 120 µM | –
6 | COCn1c(C)c(C)c2c(=O)oc(N(C)C)nc21 | > 200 µM | 138 µM | –
7 | ON(Cc1ccccc1)C(=S)c1ccccc1 | > 5.37 µM | 0.372 µM | –
8 | O=C(c1ccncc1)n1nc(-c2ccccc2)c(N=Nc2ccc([N+](=O)[O-])cc2)c1-c1ccccc1 | > 39.8 µM | > 39.8 µM | –
9 | O=C(C=Nc1ccccc1C(=O)[O-])c1ccco1.O=C(C=Nc1ccccc1C(=O)[O-])c1ccco1.[Co+2] | > 1.38 µM | > 1.38 µM | –
10 | Cc1oc(C)c2c1C(=O)N(C)C2=O | > 100 µM | > 100 µM | –
11 | COc1ccc(Cc2cc(Cc3ccc(OC)cc3)cc(Cc3ccc(OC)cc3)c2)cc1 | > 100 µM | > 100 µM | –
12 | O=C(/C=N/O)Nc1ccc(Cl)c(I)c1 | > 79.4 µM | 64.6 µM | –
13 | COC(=O)c1cc(C(=CCC[C@H]2CC[C@@]3(C)[C@@H](CC[C@H]4[C@@H]3CC[C@]3(C)[C@@H](C(C)CCCC(C)C)CC[C@@H]43)C2)c2cc(F)c(OC)c(C(=O)OC)c2)cc(F)c1OC (stereo partly drawn) | > 200 µM | > 200 µM | –
14 | CC1(C)CNCC(C)(OCc2ccccc2)C(=O)NC(C)(C)CNCC(C)(OCc2ccccc2)C(=O)N1 (stereo not drawn) | 3.8 µM | 24.5 µM | –
15 | CCOc1ccc(N2C(=O)NC3(c4ccccc4)N(C)C(=O)N(C)C23c2ccccc2)cc1 (stereo not drawn) | – | – | inactive
16 | COC(=O)c1sc2nc(Nc3ccccc3)c(=Nc3ccccc3)sc2c1C | > 200 µM | > 200 µM | –
17 | Cc1cn(C2CC(N=[N+]=[N-])C(COC(=O)CCCCCCCCCCOc3ccccc3)O2)c(=O)[nH]c1=O (stereo not drawn) | 0.0468 µM | 110 µM | –
18 | Cc1[nH]c(-c2ccccc2)c2nc(N(C)C)oc(=O)c12 | > 200 µM | > 200 µM | –
19 | O=C(CCCCC(=O)OCC1COCO1)OCC1COCO1 (stereo not drawn) | > 200 µM | > 200 µM | –
20 | CCOC(=O)/C(C#N)=C1/c2ccccc2C(=O)C1(Cl)C(N)=O (stereo not drawn) | > 200 µM | 28.8 µM | –
21 | Cc1ccnc(NC(=S)Nc2ccc([N+](=O)[O-])cc2)c1 | > 200 µM | > 200 µM | –
22 | CC1=NNC(=O)C1C1CC(c2c[nH]c3ccccc23)=NNC1=NCc1ccccc1 (stereo not drawn) | 4.68 µM | 50.1 µM | –

Row | Structure (SMILES) | EC50 | IC50 | outcome
23 | CCC1CC2CN3CCc4c([nH]c5ccccc45)C(C(=O)OC)(C2)C13 (stereo not drawn) | – | – | inactive
24 | N#C/C(=C\c1ccc([N+](=O)[O-])cc1)c1ccccc1 | > 11 µM | > 11 µM | –
25 | O=C1/C(=C/c2cccc([N+](=O)[O-])c2)COc2ccc(Br)cc21 | > 10.5 µM | > 10.5 µM | –
26 | Clc1ccc(OCc2nnc(CCCCCCCCc3nnc(COc4ccc(Cl)cc4)n3Nc3ccccc3)n2Nc2ccccc2)cc1 | – | – | inactive
27 | O=c1[nH]cc(NS(=O)(=O)O)c(=O)[nH]1 | > 200 µM | > 200 µM | –
28 | CSc1nc2c(c(O)c(C)c(=O)n2C2OCC(OC(C)=O)C(OC(C)=O)C2OC(C)=O)c(=O)n1C (stereo not drawn) | > 70.8 µM | > 70.8 µM | –
29 | Cc1ccc(S(=O)(=O)c2ccc(N)cc2)cc1 | – | – | inactive
30 | c1csc(-c2ccc(-c3ccsc3)s2)c1 | > 200 µM | > 200 µM | –
31 | C1CCCCc2nc3c(nc2CCC1)c1nc2c(nc1c1nc4c(nc31)CCCCCCCC4)CCCCCCCC2 | – | – | inactive
32 | CCOC(=O)c1c(SC(=O)c2ccc(Cl)cc2)n(-c2ccccc2)c(=S)n(-c2ccccc2)c1=O | > 200 µM | 141 µM | –
33 | NC(=S)N/N=C1\CCCCC1C(O)(C(F)(F)Cl)C(F)(F)Cl (stereo not drawn) | > 200 µM | > 200 µM | –
34 | CN1CCCCCCCC(=O)C(OC(=O)c2ccc([N+](=O)[O-])cc2)CCCCCCC1 (stereo not drawn) | > 100 µM | 72.4 µM | –
35 | O=C(O)[C@@H]1OCCOCCO[C@@H](C(=O)O)[C@H](C(=O)O)OCCOCCO[C@H]1C(=O)O | > 562 µM | > 562 µM | –
36 | Cc1cc(NS(=O)(=O)c2ccc(N)cc2)sn1 | > 200 µM | > 200 µM | –
37 | CCOP(=O)(OCC)C(C)(CC)NC (stereo not drawn) | > 200 µM | > 200 µM | –
38 | O=C(Cc1ccccc1)c1ccc2[nH]c(=O)oc2c1 | > 200 µM | 102 µM | –
39 | Nc1ccc2ncc(NCc3ccc(F)cc3)nc2c1 | > 135 µM | 69.2 µM | –
40 | CCCCCC=C(c1cc(C(=O)OC)c(OC)c(C(F)(F)F)c1)c1cc(C(=O)OC)c(OC)c(C(F)(F)F)c1 | > 200 µM | 105 µM | –
41 | O=C1c2[nH]c3ccc(Br)cc3c2CCN1Cc1ccc(Cl)cc1 | > 200 µM | 11.2 µM | –
42 | CN(C)c1nn2c(-c3ccccc3)nnc2o1 | > 200 µM | > 200 µM | –
43 | N#Cc1c(N2CCCC2)ncn(Cc2ccccc2)c1=O | > 200 µM | > 200 µM | –
44 | NC(=O)NC(=O)C1CCC(=O)N1S(=O)(=O)c1ccc(Cl)cc1 (stereo not drawn) | > 724 µM | 141 µM | –

Row | Structure (SMILES) | EC50 | IC50 | outcome
45 | O=C1CC23CCCCCCCCCCC2(C1)CC(=O)C3 (stereo not drawn) | – | – | inactive
46 | CCOC(=O)C1SC(=Nc2ccc(C)c(C)c2)N=C1C (stereo not drawn) | > 18.2 µM | > 18.2 µM | –
47 | CC(=O)OCC(OC(C)=O)C(OC(C)=O)C(OC(C)=O)C(/C=N\Nc1nc2ccccc2c(=O)[nH]1)OC(C)=O (stereo not drawn) | > 200 µM | > 200 µM | –
48 | C[N+]1(CC(=O)O)C2CCC1CC(O)C2 (stereo not drawn) | > 200 µM | > 200 µM | –
49 | CCOC(=O)c1c(SC(=O)C(C)(C)Oc2ccc(Cl)cc2)n(-c2ccccc2)c(=S)n(-c2ccccc2)c1=O | > 200 µM | 9.55 µM | –
50 | Cc1[nH]c2ccccc2c1C1Cc2ccccc2N1 (stereo not drawn) | – | – | inactive
51 | COC(=O)CC(NC(=O)OCc1ccccc1)C(=O)NC(CC(=O)OC)C(=O)NC(CC(=O)OC)C(=O)NC(CC(=O)OC)C(=O)NC(CC(=O)OC)C(=O)NC(CC(=O)OC)C(=O)NN (stereo not drawn) (Cbz-D(OMe)D(OMe)D(OMe)D(OMe)D(OMe)D(OMe)-NHNH2; configuration not given here) | > 100 µM | > 100 µM | –
52 | CCN(CC)Cc1nc(C2CCC([N+](=O)[O-])O2)no1 (stereo not drawn) | > 200 µM | 72.4 µM | –
53 | N[C@@H]1c2c(Br)sc(Br)c2C(=O)[C@H]1Br | > 200 µM | 23.4 µM and 26.9 µM | –
54 | CCN(CC)Cc1c(/C=C\c2cc(OC)c(OC)c(OC)c2)ccc(OC)c1O | > 200 µM | 1.1 µM | –
55 | C#CCNC(CSSCC(N)C(=O)O)C(=O)O (stereo not drawn) | 6.92 µM | > 200 µM | –
56 | COC(=O)C1C(O)CCC2CN3CCc4c([nH]c5ccccc45)C3CC21 (stereo not drawn) | > 200 µM | 70.8 µM | –
57 | Cc1ccc(S(=O)(=O)n2c3c(c4ccccc42)CCN2CCC(Br)C[C@@H]32)cc1 (stereo partly drawn) | > 200 µM | 20.9 µM | –
58 | COC1=NN2C(OC)(c3ccccc3)c3c(-c4ccccc4)sc(-c4ccccc4)c3C2(c2ccccc2)S1 (stereo not drawn) | – | – | inactive
59 | O=c1[nH]nc(Cc2ccccc2)n1/N=C/c1ccncc1 | 72.4 µM | 158 µM | –
60 | C1=Nc2ccc(cc2)N=Cc2ccccc2OCc2cccc(n2)COc2ccccc21 | > 200 µM | > 200 µM | –
61 | CCOC(=O)CSc1nc(-c2ccccc2)c(C#N)c(=O)[nH]1 | – | – | inactive
62 | O=C1NC2(CN3CCC2CC3)C(=O)N1CN(Cc1ccccc1)c1ccccc1 (stereo not drawn) | > 200 µM | 91.2 µM | –
63 | O=P(O)(O)C(CSc1ccccc1)P(=O)(O)O | – | – | inactive
64 | Nc1c(N2CCCCC2)c(=O)nc2[nH]/c(=C\c3ccco3)c(=O)n12 | > 200 µM | 158 µM | –
65 | CCc1ccccc1NC(=O)CCc1n[nH]c(=S)o1 | 44.7 µM | 67.6 µM | –
66 | CN(C)CCSc1nnc(-c2cccs2)c2ccccc12 | > 794 µM | 40.7 µM | –

Row | Structure (SMILES) | EC50 | IC50 | outcome
67 | CCCNCc1c2c(O)c3c(O)c(C)c4c(c3c1O)C(=O)C(C)(O/C=C/C(OC)C(C)C(OC(C)=O)C(C)C(O)C(C)C(O)C(C)/C=C/C=C(/C)C(=O)N2)O4 (stereo not drawn) | > 200 µM | 3.8 µM | –
68 | CC(C)/C(Cl)=N\OC(=O)Nc1ccc(C#N)cc1 | > 200 µM | 4.27 µM | –
69 | COC(=O)CCc1cccnc1/C=N/O | > 1200 µM | 126 µM | –
70 | O=C(Nc1ccccc1)n1[nH]c(=O)n(-c2ccccc2)c1=O | > 200 µM | > 200 µM | –
71 | CCOC(=O)Cn1c(=O)cc(C=O)c2ccccc21 | > 200 µM | 15.5 µM | –
72 | O=C(O)c1ccc(Sc2ccccc2)cc1 | > 200 µM | > 200 µM | –
73 | COc1ccc(C2SC(=S)N(c3ccc(Cl)cc3)N2c2ccc(Cl)cc2)cc1 (stereo not drawn) | > 200 µM | 24 µM | –
74 | CC(=O)C(C)[P+](c1ccccc1)(c1ccccc1)c1ccccc1 (stereo not drawn) | > 200 µM | 39.8 µM | –
75 | CC1CC(=O)C(CC(=O)O)C1C(C(=O)C(=O)Nc1c(C#N)cccc1[N+](=O)[O-])[N+](=O)[O-] (stereo not drawn) | – | – | inactive
76 | CCOC(=O)CSCn1ncc2ccc([N+](=O)[O-])cc21 | – | – | inactive
77 | Cc1ccccc1NC(=O)Cc1csc2[n+]1C(=O)/C(=C/c1ccc([N+](=O)[O-])cc1)S2 | > 200 µM | 38.9 µM | –
78 | O=C1OCC2OC(O)C(O)C(O)C2OC(=O)c2cc(O)c(O)c(O)c2-c2c(O)c(O)c3oc(=O)c4c(c(O)c(O)c5oc(=O)c2c3c54)-c2c1cc(O)c(O)c2O (stereo not drawn) | 4.17 µM | 14.8 µM | –
79 | CN(C)c1ccc(/C=C\C#N)cc1 | > 97.7 µM | > 97.7 µM | –
80 | CCOC(=O)C(N=Nc1ccc(S(N)(=O)=O)cc1)C(C)=O (stereo not drawn) | > 794 µM | 389 µM | –
81 | CCOCCOC(=O)C1CCC(=O)N1CN(C(C)=O)c1cc(OC)ccc1OC (stereo not drawn) | – | – | inactive
82 | COC1=C(NC(C)=O)C(=O)c2nc3n(c2C1=O)CCC3 | > 200 µM | 75.9 µM | –
83 | CC(O)c1ccc[n+](Cc2ccccc2)c1 (stereo not drawn) | > 1000 µM | 776 µM | –
84 | CCOC(=O)CCn1cnc(N)n1 | – | – | inactive
85 | O=c1ccc2cc3ccoc3c(OCCOCCOCCOCCOc3c4occc4cc4ccc(=O)oc34)c2o1 | > 79.4 µM | 10.7 µM | –
86 | Cc1cc(-c2cccs2)oc(=O)c1NC(=O)c1ccccc1 | > 200 µM | 26.9 µM | –
